{"source": "paper PMC5218480", "about": "(PLoS ONE, 2017)", "test_system": "MV-4-11 cells", "experiment": "Gene expression microarray analysis (Affymetrix PrimeView) and GSEA", "type": "cell-based, human", "set-up": "RFU PODN (11730768_x_at) / Fold change /veh PODN (11730768_x_at) / RFU LINC00158 (11744669_a_at) / Fold change /veh LINC00158 (11744669_a_at) / RFU DUSP10 (11751237_a_at) / Fold change /veh DUSP10 (11751237_a_at) / RFU ID3 (11757404_x_at) / Fold change /veh ID3 (11757404_x_at) / RFU PLEKHG5 (11737974_s_at) / Fold change /veh PLEKHG5 (11737974_s_at) / RFU LRRC4B (11730491_at) / Fold change /veh LRRC4B (11730491_at) / RFU GIMAP4 (11747438_a_at) / Fold change /veh GIMAP4 (11747438_a_at) / RFU KRT8 (11758183_x_at) / Fold change /veh KRT8 (11758183_x_at) / RFU CNN1 (11734310_a_at) / Fold change /veh CNN1 (11734310_a_at) / RFU VPS37D (11726825_at) / Fold change /veh VPS37D (11726825_at) / RFU C10orf10 (11716522_x_at) / Fold change /veh C10orf10 (11716522_x_at) / RFU KIR2DL2 /// KIR2DL4 /// KIR2DL5A /// KIR2DL5B /// KIR2DS1 /// KIR2DS2 /// KIR2DS3 /// KIR2DS4 /// KIR3DL3 /// KIR3DL3 /// KIR3DS1 (11738374_at) / Fold change /veh KIR2DL2 /// KIR2DL4 /// KIR2DL5A /// KIR2DL5B /// KIR2DS1 /// KIR2DS2 /// KIR2DS3 /// KIR2DS4 /// KIR3DL3 /// KIR3DL3 /// KIR3DS1 (11738374_at) / RFU C1QL1 (11718748_at) / Fold change /veh C1QL1 (11718748_at) / RFU TMPRSS4 (11747572_a_at) / Fold change /veh TMPRSS4 (11747572_a_at) / RFU HAMP (11756126_x_at) / Fold change /veh HAMP (11756126_x_at) / RFU RNFT2 (11725882_a_at) / Fold change /veh RNFT2 (11725882_a_at) / RFU NR4A2 (11747474_a_at) / Fold change /veh NR4A2 (11747474_a_at) / RFU ABCC12 (11746883_a_at) / Fold change /veh ABCC12 (11746883_a_at) / RFU TMEM136 (11760407_x_at) / Fold change /veh TMEM136 (11760407_x_at) / RFU CLDN22 /// WWC2 (11732394_at) / Fold change /veh CLDN22 /// WWC2 (11732394_at) / RFU HLA-DPB1 (11760878_x_at) / Fold change /veh HLA-DPB1 (11760878_x_at) / RFU SPINT1 (11716480_a_at) / Fold change /veh SPINT1 (11716480_a_at) / RFU GAP43 (11754022_s_at) / Fold change /veh GAP43 (11754022_s_at) / RFU A4GNT (11735810_at) / Fold change /veh A4GNT (11735810_at) / RFU PRB3 (11715151_x_at) / Fold change /veh PRB3 (11715151_x_at) / RFU TUBB4B (11761932_at) / Fold change /veh TUBB4B (11761932_at) / RFU CAPN14 (11732068_a_at) / Fold change /veh CAPN14 (11732068_a_at) / RFU TMCC2 (11721928_a_at) / Fold change /veh TMCC2 (11721928_a_at) / RFU IRGQ (11745062_a_at) / Fold change /veh IRGQ (11745062_a_at) / RFU FAM174B (11720279_a_at) / Fold change /veh FAM174B (11720279_a_at) / RFU TMPRSS4 (11748680_a_at) / Fold change /veh TMPRSS4 (11748680_a_at) / RFU FAM212B (11763350_a_at) / Fold change /veh FAM212B (11763350_a_at) / RFU PLEKHG5 (11743358_a_at) / Fold change /veh PLEKHG5 (11743358_a_at) / RFU ZSCAN30 (11745921_a_at) / Fold change /veh ZSCAN30 (11745921_a_at) / RFU CMKLR1 (11741424_a_at) / Fold change /veh CMKLR1 (11741424_a_at) / RFU LOC101060620 /// MAPK8IP1 (11723275_at) / Fold change /veh LOC101060620 /// MAPK8IP1 (11723275_at) / RFU SPTSSB (11747773_x_at) / Fold change /veh SPTSSB (11747773_x_at) / RFU PRSS12 (11739890_at) / Fold change /veh PRSS12 (11739890_at) / RFU BIN1 (11741810_x_at) / Fold change /veh BIN1 (11741810_x_at) / RFU WNT11 (11732464_a_at) / Fold change /veh WNT11 (11732464_a_at) / RFU C10orf10 (11716521_a_at) / Fold change /veh C10orf10 (11716521_a_at) / RFU C5orf56 (11738089_at) / Fold change /veh C5orf56 (11738089_at) / RFU CYB561 (11721691_x_at) / Fold change /veh CYB561 (11721691_x_at) / RFU ANKRD19P (11752326_a_at) / Fold change /veh ANKRD19P (11752326_a_at) / RFU OR2T12 /// OR2T33 /// OR2T8 (11738714_s_at) / Fold change /veh OR2T12 /// OR2T33 /// OR2T8 (11738714_s_at) / RFU VCAN (11748164_a_at) / Fold change /veh VCAN (11748164_a_at) / RFU JSRP1 (11732532_at) / Fold change /veh JSRP1 (11732532_at) / RFU KRTAP10-11 (11738290_x_at) / Fold change /veh KRTAP10-11 (11738290_x_at) / RFU MYO3A (11730013_a_at) / Fold change /veh MYO3A (11730013_a_at) / RFU EBF3 (11725865_a_at) / Fold change /veh EBF3 (11725865_a_at) / RFU CAMK2N1 (11719241_x_at) / Fold change /veh CAMK2N1 (11719241_x_at) / RFU C5orf56 (11738088_a_at) / Fold change /veh C5orf56 (11738088_a_at) / RFU OLFML3 (11715873_a_at) / Fold change /veh OLFML3 (11715873_a_at) / RFU LOC100653217 /// NTM (11731650_a_at) / Fold change /veh LOC100653217 /// NTM (11731650_a_at) / RFU MAPK11 (11762145_a_at) / Fold change /veh MAPK11 (11762145_a_at) / RFU FIZ1 (11724087_x_at) / Fold change /veh FIZ1 (11724087_x_at) / RFU OASL (11726364_x_at) / Fold change /veh OASL (11726364_x_at) / RFU SOX15 (11748057_x_at) / Fold change /veh SOX15 (11748057_x_at) / RFU CD79A (11719716_a_at) / Fold change /veh CD79A (11719716_a_at) / RFU HIST1H1D (11736915_at) / Fold change /veh HIST1H1D (11736915_at) / RFU CASKIN2 (11723855_a_at) / Fold change /veh CASKIN2 (11723855_a_at) / RFU LOC730098 (11760151_x_at) / Fold change /veh LOC730098 (11760151_x_at) / RFU OR4N2 (11742367_at) / Fold change /veh OR4N2 (11742367_at) / RFU PRRT2 (11749266_a_at) / Fold change /veh PRRT2 (11749266_a_at) / RFU SNX32 (11753110_a_at) / Fold change /veh SNX32 (11753110_a_at) / RFU CDHR5 (11726645_a_at) / Fold change /veh CDHR5 (11726645_a_at) / RFU RCAN1 (11760418_a_at) / Fold change /veh RCAN1 (11760418_a_at) / RFU FAM167A (11723789_a_at) / Fold change /veh FAM167A (11723789_a_at) / RFU FAM26E (11764081_at) / Fold change /veh FAM26E (11764081_at) / RFU ISYNA1 (11749810_s_at) / Fold change /veh ISYNA1 (11749810_s_at) / RFU ACY1 (11761880_at) / Fold change /veh ACY1 (11761880_at) / RFU 11764098_at / Fold change /veh 11764098_at / RFU SAMD14 (11745864_x_at) / Fold change /veh SAMD14 (11745864_x_at) / RFU NPB (11741838_a_at) / Fold change /veh NPB (11741838_a_at) / RFU TMPRSS6 (11731388_a_at) / Fold change /veh TMPRSS6 (11731388_a_at) / RFU KRTAP10-2 (11738614_at) / Fold change /veh KRTAP10-2 (11738614_at) / RFU ARHGAP8 /// PRR5-ARHGAP8 (11727945_x_at) / Fold change /veh ARHGAP8 /// PRR5-ARHGAP8 (11727945_x_at) / RFU KRTAP5-7 /// NADSYN1 (11734609_at) / Fold change /veh KRTAP5-7 /// NADSYN1 (11734609_at) / RFU RASL12 (11751679_a_at) / Fold change /veh RASL12 (11751679_a_at) / RFU CDKN2B (11736163_a_at) / Fold change /veh CDKN2B (11736163_a_at) / RFU PRF1 (11729649_at) / Fold change /veh PRF1 (11729649_at) / RFU, ZNF638 /// ZNF638-IT1 / Fold change vs veh, ZNF638 /// ZNF638-IT1 / RFU, PANK3 / Fold change vs veh, PANK3 / RFU, SH3YL1 / Fold change vs veh, SH3YL1 / RFU, ZEB2 / Fold change vs veh, ZEB2 / RFU, NRIP1 / Fold change vs veh, NRIP1 / RFU, PTTG1IP / Fold change vs veh, PTTG1IP / RFU, CAPN2 / Fold change vs veh, CAPN2 / RFU, MED14 / Fold change vs veh, MED14 / RFU, SNORA58 / Fold change vs veh, SNORA58 / RFU, C1orf63 / Fold change vs veh, C1orf63 / RFU, LRRFIP1 / Fold change vs veh, LRRFIP1 / RFU, NDUFAF7 / Fold change vs veh, NDUFAF7 / RFU, SLC12A2 / Fold change vs veh, SLC12A2 / RFU, IBTK / Fold change vs veh, IBTK / RFU, ESF1 / Fold change vs veh, ESF1 / Fold change vs veh, TMEM50B / RFU, TAOK1 / Fold change vs veh, TAOK1 / RFU, ACBD3 / Fold change vs veh, ACBD3 / RFU, TMA16 / Fold change vs veh, TMA16 / RFU, RWDD3 / Fold change vs veh, RWDD3 / RFU, BCAT1 / Fold change vs veh, BCAT1 / RFU, EDEM3 / Fold change vs veh, EDEM3 / RFU, TMEM33 / Fold change vs veh, TMEM33 / RFU, WDR75 / Fold change vs veh, WDR75 / RFU, AHCTF1 / Fold change vs veh, AHCTF1 / RFU, TFRC / Fold change vs veh, TFRC / RFU, ZDHHC17 / Fold change vs veh, ZDHHC17 / RFU, NOM1 / Fold change vs veh, NOM1 / RFU, ARL8B / Fold change vs veh, ARL8B / RFU, ZBTB11 / Fold change vs veh, ZBTB11 / RFU, TAMM41 / Fold change vs veh, TAMM41 / RFU, KIAA1704 /// LOC100996395 / Fold change vs veh, KIAA1704 /// LOC100996395 / RFU, ING1 / Fold change vs veh, ING1 / RFU, TRMT61B / Fold change vs veh, TRMT61B / RFU, FUBP3 / Fold change vs veh, FUBP3 / RFU, TP53 / Fold change vs veh, TP53 / RFU, TNKS2 / Fold change vs veh, TNKS2 / RFU, ZFP14 / Fold change vs veh, ZFP14 / RFU, ACTR2 / Fold change vs veh, ACTR2 / RFU, PPP3R1 / Fold change vs veh, PPP3R1 / RFU, PIK3R1 / Fold change vs veh, PIK3R1 / RFU, HNRNPA1 / Fold change vs veh, HNRNPA1 / RFU, RNF170 / Fold change vs veh, RNF170 / RFU, ZNF28 / Fold change vs veh, ZNF28 / RFU, RNGTT / Fold change vs veh, RNGTT / RFU, OGT / Fold change vs veh, OGT / RFU, BRD1 / Fold change vs veh, BRD1 / RFU, MARS / Fold change vs veh, MARS / RFU, ZNF655 / Fold change vs veh, ZNF655 / RFU, FAHD1 / Fold change vs veh, FAHD1 / RFU, BDP1 / Fold change vs veh, BDP1 / RFU, LRRCC1 / Fold change vs veh, LRRCC1 / RFU, ARID1A / Fold change vs veh, ARID1A / RFU, ZNF146 / Fold change vs veh, ZNF146 / RFU, ZNF330 / Fold change vs veh, ZNF330 / RFU, GPN3 / Fold change vs veh, GPN3 / RFU, C9orf123 / Fold change vs veh, C9orf123 / RFU, N4BP2L2 / Fold change vs veh, N4BP2L2 / RFU, ARFIP1 / Fold change vs veh, ARFIP1 / RFU, FAM179B / Fold change vs veh, FAM179B / RFU, BCL10 / Fold change vs veh, BCL10 / RFU, UHRF1BP1L / Fold change vs veh, UHRF1BP1L / RFU, BET1 / Fold change vs veh, BET1 / RFU, CNOT2 / Fold change vs veh, CNOT2 / RFU, ZNF268 / Fold change vs veh, ZNF268 / Fold change vs veh, ZNF507 / RFU, DGCR2 / Fold change vs veh, DGCR2 / RFU, WDSUB1 / Fold change vs veh, WDSUB1 / Fold change vs veh, HSP90B1 /// MIR3652 / RFU, ADSS / Fold change vs veh, ADSS / RFU, GK / Fold change vs veh, GK / RFU, ZNF148 / Fold change vs veh, ZNF148 / RFU, TAF9 / Fold change vs veh, TAF9 / RFU, SLC1A5 / Fold change vs veh, SLC1A5 / RFU, SLMO2 / Fold change vs veh, SLMO2 / RFU, ABCC4 / Fold change vs veh, ABCC4 / RFU, LOC101060439 /// RAP1B / Fold change vs veh, LOC101060439 /// RAP1B / RFU, RFX7 / Fold change vs veh, RFX7 / RFU, GTPBP10 / Fold change vs veh, GTPBP10 / RFU, CNEP1R1 / Fold change vs veh, CNEP1R1 / RFU, BIVM-ERCC5 /// ERCC5 / Fold change vs veh, BIVM-ERCC5 /// ERCC5 / RFU, ILF3 / Fold change vs veh, ILF3 / RFU 11762660_at / Fold change /veh 11762660_at / RFU VCAN (11757783_s_at) / Fold change /veh VCAN (11757783_s_at) / RFU DDX43 (11728927_at) / Fold change /veh DDX43 (11728927_at) / RFU KRT8 (11758188_x_at) / Fold change /veh KRT8 (11758188_x_at) / RFU NKD1 (11759106_at) / Fold change /veh NKD1 (11759106_at) / RFU SRD5A1 (11742802_a_at) / Fold change /veh SRD5A1 (11742802_a_at) / RFU TPSAB1 /// TPSB2 (11721975_s_at) / Fold change /veh TPSAB1 /// TPSB2 (11721975_s_at) / RFU GSTM3 (11746129_a_at) / Fold change /veh GSTM3 (11746129_a_at) / RFU IL23R (11737362_x_at) / Fold change /veh IL23R (11737362_x_at) / RFU TMEM51 (11727254_a_at) / Fold change /veh TMEM51 (11727254_a_at) / RFU PIWIL2 (11732686_x_at) / Fold change /veh PIWIL2 (11732686_x_at) / RFU ORM1 (11744905_x_at) / Fold change /veh ORM1 (11744905_x_at) / RFU CCDC152 (11743942_at) / Fold change /veh CCDC152 (11743942_at) / RFU ECM1 (11717891_a_at) / Fold change /veh ECM1 (11717891_a_at) / RFU IL23R (11748794_a_at) / Fold change /veh IL23R (11748794_a_at) / RFU TNFAIP8L3 (11732012_x_at) / Fold change /veh TNFAIP8L3 (11732012_x_at) / RFU MBOAT4 (11741988_at) / Fold change /veh MBOAT4 (11741988_at) / RFU 11764193_at / Fold change /veh 11764193_at / RFU TMEM53 (11763286_at) / Fold change /veh TMEM53 (11763286_at) / RFU MAGEB2 (11727129_at) / Fold change /veh MAGEB2 (11727129_at) / RFU TMEM200A (11744735_a_at) / Fold change /veh TMEM200A (11744735_a_at) / RFU CCDC152 (11751479_a_at) / Fold change /veh CCDC152 (11751479_a_at) / RFU FAM211A (11726209_a_at) / Fold change /veh FAM211A (11726209_a_at) / RFU RGS16 (11746705_a_at) / Fold change /veh RGS16 (11746705_a_at) / RFU VCAN (11755009_s_at) / Fold change /veh VCAN (11755009_s_at) / RFU RHOB (11743442_s_at) / Fold change /veh RHOB (11743442_s_at) / RFU RGS16 (11720943_a_at) / Fold change /veh RGS16 (11720943_a_at) / RFU RGS16 (11720944_at) / Fold change /veh RGS16 (11720944_at) / RFU, VPS4B / Fold change vs veh, VPS4B / RFU, CREB1 / Fold change vs veh, CREB1 / RFU, DNAJC13 / Fold change vs veh, DNAJC13 / RFU, GNAQ / Fold change vs veh, GNAQ / RFU, CDK5R1 / Fold change vs veh, CDK5R1 / RFU, ZRANB3 / Fold change vs veh, ZRANB3 / RFU, CUL4A / Fold change vs veh, CUL4A / RFU, CCNY / Fold change vs veh, CCNY / RFU, UFL1 / Fold change vs veh, UFL1 / RFU, COG3 / Fold change vs veh, COG3 / RFU, DIAPH2 / Fold change vs veh, DIAPH2 / RFU, SKA2 / Fold change vs veh, SKA2 / RFU, AFF3 / Fold change vs veh, AFF3 / RFU, LMF1 / Fold change vs veh, LMF1 / RFU, IPO11 / Fold change vs veh, IPO11 / RFU, DFFB / Fold change vs veh, DFFB / RFU, FOXP1 / Fold change vs veh, FOXP1 / RFU, CARD8 / Fold change vs veh, CARD8 / RFU, STRN3 / Fold change vs veh, STRN3 / RFU, ADK / Fold change vs veh, ADK / RFU, RASSF2 / Fold change vs veh, RASSF2 / RFU, WIPF1 / Fold change vs veh, WIPF1 / RFU, LARP1B / Fold change vs veh, LARP1B / RFU, RASA1 / Fold change vs veh, RASA1 / RFU, RB1 / Fold change vs veh, RB1 / RFU, PPFIA1 / Fold change vs veh, PPFIA1 / RFU, MAT2A / Fold change vs veh, MAT2A / RFU, CCT5 / Fold change vs veh, CCT5 / RFU, WDR92 / Fold change vs veh, WDR92 / RFU, CUX1 / Fold change vs veh, CUX1 / RFU, TTC7A / Fold change vs veh, TTC7A / RFU, TMEM135 / Fold change vs veh, TMEM135 / RFU, DEPTOR / Fold change vs veh, DEPTOR / RFU, CPM / Fold change vs veh, CPM / RFU, DNAJB6 / Fold change vs veh, DNAJB6 / RFU, CACNA2D3 / Fold change vs veh, CACNA2D3 / RFU, DTX4 / Fold change vs veh, DTX4 / RFU, TFCP2 / Fold change vs veh, TFCP2 / RFU, GMCL1 /// GMCL1P1 / Fold change vs veh, GMCL1 /// GMCL1P1 / RFU, AEBP2 / Fold change vs veh, AEBP2 / RFU, SNHG1 /// SNORD22 /// SNORD25 /// SNORD26 /// SNORD27 /// SNORD28 /// SNORD29 /// SNORD31 / Fold change vs veh, SNHG1 /// SNORD22 /// SNORD25 /// SNORD26 /// SNORD27 /// SNORD28 /// SNORD29 /// SNORD31 / Fold change (Aza/veh), C12orf56 (ProbeSet 11735607_a_at) / Fold change (ACY-1035/veh), C12orf56 (ProbeSet 11735607_a_at) / Fold change (Aza/veh), FGFR1OP (ProbeSet 11751329_s_at) / Fold change (ACY-1035/veh), FGFR1OP (ProbeSet 11751329_s_at) / Fold change (Aza/veh), VPS36 (ProbeSet 11739960_a_at) / Fold change (ACY-1035/veh), VPS36 (ProbeSet 11739960_a_at) / RFU SYPL1 (11715823_x_at) / Fold change /veh SYPL1 (11715823_x_at) / RFU IGFBP7 (11715501_s_at) / Fold change /veh IGFBP7 (11715501_s_at) / RFU REEP3 (11722064_at) / Fold change /veh REEP3 (11722064_at) / RFU IGLL1 (11728026_x_at) / Fold change /veh IGLL1 (11728026_x_at): dose or concentration left out as unconfirmed", "conditions": "ProbeSet 11754362_a_at; LIST D", "data": [{"compound": "Nc1ccc(-c2cccs2)cc1NC(=O)c1ccc2c(c1)cc(C1CC1)n2CCN1CCOCC1", "note": "[ACY-1035]", "values": [{"measurement": "Fold change vs veh, TTC7A", "value": 0.87}]}]}
